Legend:
NFYb mRNA in Kelly cells = assay: NFYb mRNA in Kelly neuroblastoma cells; format: cell-based, human; conditions: 5 µM, 24 h, vs DMSO
Procedure: Human neuroblastoma ‘Kelly’ cells (genotype APOE3/APOE4) were plated in 96-well plates at 50K cells per well and were grown overnight in RPMI 1640 supplemented with 2 mM Glutamine, 10% FBS and 1% Pen-Strep. Cells were treated with 5 µM DDL-214, -218, or -219; or DMSO vehicle (n = 8 per compound). Twenty-four hours later, medium was removed, cells washed and lysed as described above for N2a-E4 cells.
(§1) Total RNA was isolated from cells or brain tissue (Qiagen RNEasy kit). Total RNA (0.5–1.0 µg) mRNA was then converted to cDNA (SuperScript™ III First-Strand Synthesis SuperMix kit; Thermo Fisher), and gene mRNA levels were measured using a gene-specific qRT-PCR Taqman assays (Thermo Fisher). Gene mRNA levels were normalized to GAPDH mRNA levels measured either in the same cDNA sample or in the same qPCR reaction using multiplexing of gene-of-interest/VIC and GAPDH/FAM, normalized by the delta-delta-Ct method.

PRMT5 mRNA = assay: Hippocampal PRMT5 mRNA in ApoE4-TR:5xFAD mice; format: in vivo; conditions: 20 mg/Kg BID, 56 days, vs vehicle
Procedure: The active (-) enantiomer, DDL-218, underwent efficacy testing in ApoE4-TR:5xFAD mice[27] that were 6-7.5 months old at the start of treatment. ApoE4-TR:5xFAD male and female mice received either 20 mg/Kg DDL-218 BID (~ 8- to10-hour interval; total daily dose of 40 mkd) on weekdays and a single 40 mg/Kg dose on weekends (n = 12) or vehicle-only (n = 11); 8 C57BL/6 mice received vehicle-only as behavioral controls. Dosing was by the oral route and by oral feeding using a pipette as previously described, not gavage, as it is safer for repeated oral dosing than gavage. The dose of 20 mg/kg BID (40 mkd) was selected based on findings from PK analysis and was the highest feasible in the formulation used for oral feeding (compound is first solubilized in water, then mixed strawberry syrup diluted in water, for a final vehicle that is 25% syrup and 75% water). […]
as §1

hippocampal proteins = assay: Global proteomics on hippocampal brain tissue; format: in vivo, mice
Procedure: Hippocampal brain tissue from both DDL-218- and vehicle-treated mice underwent global proteomics analysis, as described in Supplementary Methods.
Liquid chromatography tandem mass spectrometry (LC-MS/MS) was used for proteomic analysis.
Proteins from hippocampal tissue from mice treated with either DDL-218 or vehicle were diluted in T-PER buffer and concentrations adjusted after BCA protein quantitation assay (Thermo Fisher Scientific). The protein disulfide bonds were reduced and alkylated by treatment with 10 mM tris (2-carboxyethyl) phosphine (TCEP) and 40 mM chloroacetamide (CAA) for 10 min at 95°C. SP3 beads were added to each sample concentrated at 25 μL of beads for 100 μg of protein. Samples were washed 3 times with 2x the sample volume of 80% ethanol in the DynaMag™-2 Magnet and protein solutions diluted 5-fold with 50 mM TEAB.
Trypsin was added in a 1:100 (mass trypsin:mass total protein) ratio to target proteins, and the samples were incubated overnight on a rocker at 37°C.
Samples were centrifuged at 16,000 x g for 5 minutes at room temperature. A colorimetric peptide assay (Thermo Fischer Scientific) was run on a sample of each supernatant. The results were used to aliquot […] of protein from each sample, which were then lyophilized in the SpeedVac. Samples were reconstituted in 100mM TEAB, individually labelled using TMT Isobaric Label Reagent Set (Thermo Fischer Scientific), and incubated at room temperature for one hour. Each sample was then incubated at room temperature for 15 minutes with 5uL of 5% hydroxylamine and lyophilized in the SpeedVac. Subsequently, samples were reconstituted in 2% acetonitrile + 0.1% TFA, and a 5uL aliquot of each sample was pooled together. The pooled sample was desalted with C18 Stagetips made from Empore C18 solid phase extraction disks and lyophilized in the SpeedVac. It was then reconstituted in 2% acetonitrile + 0.1% Formic Acid (FA) and transferred to an autosampler vial. LC/MS2 was performed using a nanoLC and orbitrap mass analyzer using a C18 column and DDA/MS2 mass spectrometer method.
Samples were injected (5 μL) onto a reverse phase nanobore HPLC column (AcuTech Scientific, C18, 1.8 μm particle size, 360 μm x 20 cm, 150 μm ID), equilibrated in solvent E and eluted (500 nL/min) with an increasing concentration of solvent F (acetonitrile/water/FA, 98/2/0.1, v/v/v: min/% F; 0/0, 5/3, 18/7, […]
(Framingham, MA)). The effluent from the column was directed to a nanospray ionization source connected to a hybrid quadrupole-Orbitrap mass spectrometer (Q Exactive Plus, Thermo Fisher Scientific) operating in the positive ion data-dependent mode alternating between a full scan (m/z 350-1700, automated gain control (AGC) target 3 x 106, 50 ms maximum injection time, FWHM resolution 70,000 at m/z 200) and up to 10 MS/MS scans (quadrupole isolation of charge states ≥ 2, isolation width 0.7 Th) with optimized fragmentation conditions (normalized collision energy of 32, dynamic exclusion of 30 s, AGC target 1 x 105, 100 ms maximum injection time, FWHM resolution 35,000 at m/z 200). The raw data from both analyses was processed using Proteome Discoverer™ (version 2.4). Tryptic peptides containing amino acid sequences unique to individual proteins were used for identification/quantification of each protein.
Raw data was submitted to a database search using Proteome Discoverer 3.1 [ThermoFischer Scientific]. Using the results for TMT labeling efficiency, sample volumes were adjusted to achieve an equal ratio of protein across TMT labeled samples. Remaining samples were pooled in equal ratio, and the pooled sample was desalted and lyophilized in the SpeedVac overnight.
The pooled sample was fractionated using Pierce High pH Reversed-Phase Peptide Fractionation Kit (Thermo Fischer Scientific) according to the manufacturer’s protocol. The fractions were dried in the SpeedVac and reconstituted in 0.1% formic acid. Samples were transferred to autosampler vials and LC/MS2 was performed as previously described. […]

CC(N)C(=O)OC(C)(C)Cc1ccncc1 (stereo not drawn) [DDL-218]
NFYb mRNA (NFYb mRNA in Kelly cells): significantly increases NFYb mRNA | hippocampal PRMT5 mRNA (PRMT5 mRNA): significantly increased | Abundance Ratio (DDL218/Veh) (hippocampal proteins; Cep170, hippocampal tissue): 1.36 | Abundance Ratio (DDL218/Veh) (hippocampal proteins; Fxyd7, hippocampal tissue): 1.317 | Abundance Ratio (DDL218/Veh) (hippocampal proteins; Luc7l2, hippocampal tissue): 0.793 | Abundance Ratio (DDL218/Veh) (hippocampal proteins; Nubpl, hippocampal tissue): 1.374 | Abundance Ratio (DDL218/Veh) (hippocampal proteins; Ptprn2, hippocampal tissue): 1.411 | Abundance Ratio (DDL218/Veh) (hippocampal proteins; Rpl31, hippocampal tissue): 1.22 | Abundance Ratio (DDL218/Veh) (hippocampal proteins; Rps20, hippocampal tissue): 1.223 | Abundance Ratio (DDL218/Veh) (hippocampal proteins; Scfd2, hippocampal tissue): 1.338 | Abundance Ratio (DDL218/Veh) (hippocampal proteins; Shisa6, hippocampal tissue): 1.219 | Abundance Ratio (DDL218/Veh) (hippocampal proteins; Tbc1d17, hippocampal tissue): 1.25

— paper PMC12019328, “Discovery of an ApoE4-targeted small-molecule SirT1 enhancer for the treatment of Alzheimer’s disease” (Scientific Reports, 2025)
